Results reported in patent publication US20240279232A1, “USE OF SUBSTITUTED 5-(4-METHYL-6-PHENYL-4H-BENZO[F]IMIDAZO[1,5-A][1,4] DIAZEPIN-3-YL)-1,2,4-O[…] THE TREATMENT OF INFLAMMATORY CONDITIONS” (priority 2021, published 2024).
Read-outs that look alike come from different tables or passages of the source.

Assays:
[1] = test system: BZR (benzodiazepine site of GABAAR); assay: GABAAR/BZR binding, rat brain homogenate with 3H-flunitrazepam; details: rat brain homogenate, 3H-flunitrazepam; for BZR %: Percent inhibition at 10,000 nM
Description: (§1) Ligand affinities were determined for KOR (κ opioid receptor), DOR (δ opioid receptor), and MOR (μ opioid receptor) using radioligand binding assays at a screening concentration of 10,000 nM. For these assays, cell homogenates from HEK293 cells that overexpressed KOR, MOR, and DOR were used in combination with [^3H]-U69593, [^3H]-DAMGO, and [^3H]-DADLE, respectively Compounds that exceeded more than 50% radioligand displacement were investigated further in concentration-dependent experiments to determine Ki values. Gamma aminobutyric acid type A receptor (GABAAR) binding was determined with rat brain homogenate and ^3H-flunitrazepam. Flunitrazepam binds GABAAR subtypes that consists of two α and two β subunits and one γ or δ subunit. Strong affinities to α1-3,5,6β1-3γ1-y/δ GABAARS have been reported for flunitrazepam. The […] GABAAR subtype expression in the brain includes 43% α1β2γ2, 15% α2β3γ2+8% α2βγ1, 10% α3β3γ2, 6% α4βγ/δ, 4% α5β3γ2, and 4% α6β2γ2/δ. Therefore, compounds with high affinity toward the synaptic benzodiazepine-sensitive receptors (BZR) predominately bind α1-3β2-3γ1-2 GABAARs. Alternatively, compounds with weak BZR binding might be selective for α4-6βγ/δ GABAARs.
(§2) Psychoactive Drug Screening Program. Detailed protocols for the primary and secondary radioligand binding assays can be found in the National Institute of Mental Health's Psychoactive Drug Screening Program (NIMH PDSP) Assay Protocol Book. Briefly, primary and secondary radioligand binding assays are carried out in a final of volume of 125 μL per well in appropriate binding buffer. The radioactive ligand concentration is close to the Kd. Total binding and nonspecific binding are determined in the absence and presence of 10 μM of appropriate reference compound, respectively. In brief, plates are usually incubated at room temperature and in the dark for 90 min. Reactions are stopped by vacuum filtration onto 0.3% polyethyleneimine (PEI) soaked 96-well filter mats using a 96-well Filtermate harvester, followed by three washes with cold PBS buffer. Scintillation cocktail is then melted onto the microwave-dried filters on a hot plate and radioactivity counted in a Microbeta counter. The data (n=6) were analyzed by nonlinear regression.

DOR (δ opioid receptor) = molecular target: T1, DOR (δ opioid receptor) (Homo sapiens, UniProt P41143); assay: DOR radioligand binding ([3H]-DADLE, HEK293 cell homogenates); details: Percent inhibition at 10,000 nM; [3H]-DADLE
T1 construct: expressed in transfected cells; host or cells: HEK293
Description: as §2, with “Radioligand binding assays.” for “Psychoactive Drug Screening Program.”, “Book (Roth, 2018).” for “Book.”, “The radioactive ligand concentration is close to the Kd.” left out, “compound (Naltrindole DOR, Salvinorin A KOR and DAMGO MOR).” for “compound, respectively.”
as §1, §2

MOR (μ opioid receptor) = molecular target: T2, MOR (μ opioid receptor) (Homo sapiens, UniProt P35372); assay: MOR radioligand binding ([3H]-DAMGO, HEK293 cell homogenates); details: Percent inhibition at 10,000 nM; [3H]-DAMGO
T2 construct: expressed in transfected cells; host or cells: HEK293
Description: as §2, with “Radioligand binding assays.” for “Psychoactive Drug Screening Program.”, “Book (Roth, 2018).” for “Book.”, “The radioactive ligand concentration is close to the Kd.” left out, “compound (Naltrindole DOR, Salvinorin A KOR and DAMGO MOR).” for “compound, respectively.”
as §1, §2

KOR (κ opioid receptor) = molecular target: T3, KOR (κ opioid receptor) (Homo sapiens, UniProt P41145); assay: KOR radioligand binding ([3H]-U69593, HEK293 cell homogenates); details: for inhibition at 10 µM: Percent inhibition at 10,000 nM
T3 construct: expressed in transfected cells; host or cells: HEK293 (stably transfected)
Description: as §2, with “Radioligand binding assays.” for “Psychoactive Drug Screening Program.”, “Book (Roth, 2018).” for “Book.”, “The radioactive ligand concentration is close to the Kd.” left out, “compound (Naltrindole DOR, Salvinorin A KOR and DAMGO MOR).” for “compound, respectively.”
as §1, §2

Mouse microglia = assay: NO production (Griess assay), LPS/IFNγ-activated mouse microglia; format: cell-based; details: with 50 μM MP-IV-010; flumazenil 50 μM, picrotoxin 50 μM, bicuculline 100 μM, SM-21 30 μM, norbinaltorphimine 30 μM
Description: Next, a library of GABAAR ligands was investigated to identify compounds that reduce the production of NO as a marker of anti-inflammatory activity. […] NO was quantified with a Greiss assay. Cell viability was determined with CellTiter-Glo.
Cell culture. A) HMC3 Microglia (CRL-3304) were maintained in treated cell culture flasks (Nunc, 156472) with EMEM (Corning, 10010CV) supplemented with 10% heat-inactivated FBS (Corning, 35011CV) and 100 U/mL penicillin and 100 μg/mL streptomycin (Hyclone, SV30010). Cultures were maintained at 37° C. and 5% CO2. When cells reached a density of 7×10^4 cells/mL, cultures were passaged with 0.25% Trypsin (Corning, 25-053-CI) and resuspended to a density no lower than 10,000 cells/mL. B) Human and mouse microglia cell lines were a gift from Dr. David Alvarez-Carbonell at Case Western Reserve University (Cleveland, OH). Microglia were cultured in cell culture treated flasks (Nunc, 156472) with DME/F12 media (Hyclone, SH30023.01) supplemented with 10% heat-inactivated FBS (Corning, 35011CV), 100 U/mL penicillin/100 μg/mL streptomycin (Hyclone, SV30010), and Normocin (Invivogen, ant-nr). Cultures were maintained at 37° C. and 5% CO2. […] Cultures were maintained at 37° C. and 5% CO2. Cells were passaged when they reached a density of approximately 3×10^6 cells/mL using cell scrapers (VWR, 10062-906) to lift cells from flask surface and resuspended at densities of approximately 500,000 cells/mL.
Nitric oxide production (Griess assay) and viability assay (CellTiter-Glo). 80 μL of mouse microglia culture (1×10^6 cells/mL) was plated into sterile 384 well plates representing non-activated wells. The remaining culture was activated with 50 ng/ml LPS (Invivogen, NC9836) and 150 U/mL IFNγ (R&D Systems, 485MI100) and distributed into the 384 well plates. […] Assay plates were incubated for approximately 24 hours (unless otherwise noted) at 37° C., centrifuged, and 40 μL of supernatant transferred to a new plate for analysis using the Griess Assay (Promega, Madison, WI). Absorbance at 530 nm was measured using a TECAN Infinite M1000 plate reader. The remaining 40 μL containing cells was analyzed for toxicity by the CellTiter-Glo Assay (Promega, Madison, WI). Luminescence was read using a TECAN Infinite M1000 plate reader.

[2] = concentration-dependent, [3H]-U69593, read-out: KOR (Ki)

T3 sequence (P41145 whole entry): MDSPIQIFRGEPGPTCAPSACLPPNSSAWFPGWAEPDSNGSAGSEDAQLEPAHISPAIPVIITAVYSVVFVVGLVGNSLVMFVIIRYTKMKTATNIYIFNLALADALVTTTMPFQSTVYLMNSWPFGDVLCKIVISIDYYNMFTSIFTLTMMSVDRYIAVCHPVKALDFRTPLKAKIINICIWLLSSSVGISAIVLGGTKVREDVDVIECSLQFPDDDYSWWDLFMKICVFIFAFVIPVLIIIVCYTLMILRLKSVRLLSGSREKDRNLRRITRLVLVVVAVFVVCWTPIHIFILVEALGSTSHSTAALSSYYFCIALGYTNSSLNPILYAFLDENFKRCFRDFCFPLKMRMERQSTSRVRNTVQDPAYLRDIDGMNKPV
T1 sequence (P41143 whole entry): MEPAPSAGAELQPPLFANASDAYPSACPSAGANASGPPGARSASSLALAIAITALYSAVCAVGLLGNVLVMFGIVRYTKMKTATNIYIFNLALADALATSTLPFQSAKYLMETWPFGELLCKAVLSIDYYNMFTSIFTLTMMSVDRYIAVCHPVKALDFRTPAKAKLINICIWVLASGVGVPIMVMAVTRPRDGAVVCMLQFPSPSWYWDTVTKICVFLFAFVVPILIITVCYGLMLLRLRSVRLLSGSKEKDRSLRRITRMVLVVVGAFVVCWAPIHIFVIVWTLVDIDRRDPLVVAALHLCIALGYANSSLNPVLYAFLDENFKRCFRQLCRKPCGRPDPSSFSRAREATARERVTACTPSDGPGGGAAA
T2 sequence (P35372 whole entry, species assumed): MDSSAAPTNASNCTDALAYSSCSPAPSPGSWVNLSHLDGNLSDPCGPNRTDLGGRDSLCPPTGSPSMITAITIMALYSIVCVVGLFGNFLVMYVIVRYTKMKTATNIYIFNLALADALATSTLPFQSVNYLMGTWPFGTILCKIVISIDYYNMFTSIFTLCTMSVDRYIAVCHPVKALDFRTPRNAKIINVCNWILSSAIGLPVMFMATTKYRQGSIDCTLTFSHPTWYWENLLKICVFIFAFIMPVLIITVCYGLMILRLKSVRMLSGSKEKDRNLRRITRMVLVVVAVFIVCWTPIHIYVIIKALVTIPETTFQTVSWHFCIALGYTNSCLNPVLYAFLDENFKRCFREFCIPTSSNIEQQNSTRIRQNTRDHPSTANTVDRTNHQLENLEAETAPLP

Molecule | BZR % [1] [%] | Ki [1] [nM] | inhibition at 10 µM (DOR (δ opioid receptor)) [%] | inhibition at 10 µM (MOR (μ opioid receptor)) [%] | inhibition at 10 µM (KOR (κ opioid receptor); [3H]-U69593) [%] | Ki (KOR (κ opioid receptor); [2]) [nM] | Ki (KOR (κ opioid receptor)) [nM] | KOR affinity (in words) (KOR (κ opioid receptor); radioligand binding) | reversal of the NO reduction by MP-IV-010 (in words) (Mouse microglia)
C#Cc1ccc2c(c1)C(c1ccccc1F)=N[C@@H](C)c1c(C(=O)OC(C)C)ncn1-2 [GL-I-31] | 97 | 245 | 8 | 32 | 94 | 65 |  |  | 
C#Cc1ccc2c(c1)C(c1ccccc1F)=N[C@@H](C)c1c(C(=O)OCCC)ncn1-2 [GL-I-32] | 98 | 148 | 14 | 9 | 95 | 64 |  |  | 
C#Cc1ccc2c(c1)C(c1ccccc1F)=N[C@@H](C)c1c(C(=O)OC(C)(C)CC)ncn1-2 [GL-I-33] | 96 | 117 | 25 | 30 | 94 | 34 |  |  | 
C#Cc1ccc2c(c1)C(c1ccccc1F)=N[C@@H](C)c1c(C(=O)OCC(F)(F)F)ncn1-2 [GL-I-36] | 77 | 418 | 0 | 8 | 85 | 411 |  |  | 
C#Cc1ccc2c(c1)C(c1ccccc1F)=N[C@@H](C)c1c(C(=O)OC3CC3)ncn1-2 [GL-I-38] | 96 | 127 | 16 | 18 | 95 | 68 |  |  | 
C#Cc1ccc2c(c1)C(c1ccccc1F)=N[C@@H](C)c1c(C(=O)NC(C)(C)C)ncn1-2 [GL-I-41] | 90 | 140 | 10 | 40 | 97 | 39 |  |  | 
C#Cc1ccc2c(c1)C(c1ccccc1F)=N[C@@H](C)c1c(C(=O)NCC)ncn1-2 [GL-I-43] | 94 | 44 | 3 | 22 | 95 | 102 |  |  | 
C#Cc1ccc2c(c1)C(c1ccccc1F)=N[C@@H](C)c1c(C(=O)N(C)C)ncn1-2 [GL-I-54] | 94 | 90 | 11 | 18 | 78 | 788 |  |  | 
C#Cc1ccc2c(c1)C(c1ccccc1F)=N[C@@H](C)c1c(C(=O)NC3CC3)ncn1-2 [GL-I-55] | 95 | 20 | 24 | 17 | 93 | 150 |  |  | 
C#Cc1ccc2c(c1)C(c1ccccc1F)=N[C@@H](C)c1c(C(=O)SCC)ncn1-2 [GL-I-77] | 92 | 124 | 4 | 41 | 95 | 125 |  |  | 
CCOC(=O)c1ncn2c1[C@H](C)N=C(c1ccccc1F)c1cc(C3CC3)ccc1-2 [GL-I-78] | 76 | 352 | 41 | 32 | 96 |  | 48 |  | 
C#Cc1ccc2c(c1)C(c1ccccn1)=N[C@H](C)c1c(C(=O)O)ncn1-2 [GL-II-30] | 65 | 431 | 4 | 20 | 0 |  |  |  | 
C#Cc1ccc2c(c1)C(c1ccccn1)=N[C@H](C)c1c(C(=O)NC)ncn1-2 [GL-II-31] | 72 | 1700 | 3 | 17 | 23 |  |  |  | 
C#Cc1ccc2c(c1)C(c1ccccc1F)=N[C@H](C)c1c(C(=O)N(C)C)ncn1-2 [GL-II-73] | 75 | 506 | 0 | 6 | 58 | 1190 |  |  | 
C#Cc1ccc2c(c1)C(c1ccccc1F)=N[C@H](C)c1c(C(=O)NCC)ncn1-2 [GL-II-74] | 84 | 68 | 0 | 10 | 86 | 194 |  |  | 
C#Cc1ccc2c(c1)C(c1ccccc1F)=N[C@H](C)c1c(C(=O)NC3CC3)ncn1-2 [GL-II-75] | 85 | 93 | 3 | 0 | 81 | 278 |  |  | 
C#Cc1ccc2c(c1)C(c1ccccc1F)=N[C@H](C)c1c(C(=O)N3CCCC3)ncn1-2 [GL-II-76] | 43 |  | 0 | 0 | 80 | 371 |  |  | 
C[C@H]1N=C(c2ccccc2F)c2cc(Br)ccc2-n2cnc(C(=O)O)c21 [GL-II-93] | 73 | 86 | 0 | 0 | 0 |  |  | No KOR affinity was observed | 
C#Cc1ccc2c(c1)C(c1ccccn1)=NCc1c(C(=O)OCC)ncn1-2 [Hz-166] |  |  | 49 | 6 | 60 | 3820 |  |  | 
CCC(Oc1ccc(Cl)cc1)C(=O)OC1CC2CCC(C1)N2C (centres unmarked) [SM-21, reference compound] |  |  |  |  |  |  |  |  | no reversal
CCOC(=O)c1ncn2c1CN(C)C(=O)c1cc(F)ccc1-2 [flumazenil, Flumazenil, reference compound] |  |  |  |  |  |  |  |  | did not reverse
Oc1ccc2c3c1O[C@H]1c4[nH]c5c(c4C[C@@]4(O)[C@@H](C2)N(CC2CC2)CC[C@]314)C[C@@]1(O)[C@H]2Cc3ccc(O)c4c3[C@@]1(CCN2CC1CC1)[C@H]5O4 [norbinaltorphimine, reference compound] |  |  |  |  |  |  |  |  | reversed the effects of MP-IV-010
picrotoxin [reference compound] |  |  |  |  |  |  |  |  | did not reverse
